In US6867283B2, “Peptides capable of binding to MHC molecules, cells presenting such peptides, and pharmaceutical compositions comprising such peptides and/or cells” (Technion Research & Development Foundation Ltd., priority 2001, dated 2005):

Experiments:
[1] = tested on: EL4-HHD cells loaded with the peptides; experiment: Cytotoxic T lymphocytes assay after immunization of HHD transgenic mice with peptide-loaded cells; assay type: in vivo; conditions: compared to negative control peptide ALLCAPSLL; effector-to-target ratio of 50:1 shown
Source text: Cells were loaded separately with individual peptides, washed and injected in four groups: 1-p1028 (SEQ ID NO:13) alone, 2- p1258 (SEQ ID NO:24) alone, 3-pool of peptides: p913 (SEQ ID NO:5), p958 (SEQ ID NO:9), p989 of CD59 (SEQ ID NO:11) and p989 of FLI (SEQ ID NO:12), 4- peptides p1031 (SEQ ID NO:14), p1121 (SEQ ID NO:22) and p1068 (SEQ ID NO:16). Unloaded EL4-HHD or targets cells not loaded with the peptides were used as negative controls. An effector-to-target ratio of 50:1 is shown,
Transgenic mice expressing a single chain HLA-A2.1/Db-β2 m which are double knockout for H-2 Db and for β2 m (HHD mice) were immunized four times intra-peritoneally at 7-day interval with 2×10^6 irradiated (5,000 rad) RMA-S-HHD-B7.1 cells loaded for two hours at 26° C. followed by two hours at 37° C. with 100 μM of the synthetic peptides. Ten days after the last immunization the spleens were removed from the vaccinated mice. Splenocytes were re-stimulated with 100 μM of synthetic peptides for five days. Viable lymphocytes were separated by lympholyte-M (Cadarlane, Hornby, Canada) and resuspended in RPMI-HEPES. Cytotoxic activity was measured as in [26] by admixing the lymphocytes at different ratios with 5×10^3 EL4-HHD cells grown in medium containing ^35S methionine and then loaded wit the synthetic peptides.
To further evaluate the affinity of the peptides to the HLA-A2 and to obtain some insight into their immunogenic potential, selected peptides were tested for their ability to induce an immune response in HLA-A2 transgenic mice. It was assumed that only peptides that could be effectively presented and remain tightly bound to the cells would be capable of inducing an immune response in these mice. The same synthetic peptides that were used for the FACS analysis were used for immunization of the HHD transgenic mice, which express the human HLA-A2.1/Db-β2 m single chain. To immunize the mice, the HHD culture cells were loaded with the different peptides and then injected to the HHD mice. The immune response in the mice was followed by the appearance of CTLs specific for these peptides. Some of the peptides were indeed capable of inducing an immune response, which both authenticate them as MHC bound peptides and gives an indication about their immunogenic potential.

HLA-A2.1 = tested on: T1, HLA-A2.1; experiment: Stabilization of cell surface HLA-A2.1 by peptide binding (reconstitution into empty MHC on RMA-S-HHD cells, FACS); assay type: cell-based, human; conditions: synthetic peptide 100 μM, FACS with W6/32 mAb
T1 construct: expressed in transfected cells; host or cells: RMA-S (murine TAP-2 deficient lymphoma, C57BL/6 origin)
T1 sequence (P61769 with tags, fused parts or gaps): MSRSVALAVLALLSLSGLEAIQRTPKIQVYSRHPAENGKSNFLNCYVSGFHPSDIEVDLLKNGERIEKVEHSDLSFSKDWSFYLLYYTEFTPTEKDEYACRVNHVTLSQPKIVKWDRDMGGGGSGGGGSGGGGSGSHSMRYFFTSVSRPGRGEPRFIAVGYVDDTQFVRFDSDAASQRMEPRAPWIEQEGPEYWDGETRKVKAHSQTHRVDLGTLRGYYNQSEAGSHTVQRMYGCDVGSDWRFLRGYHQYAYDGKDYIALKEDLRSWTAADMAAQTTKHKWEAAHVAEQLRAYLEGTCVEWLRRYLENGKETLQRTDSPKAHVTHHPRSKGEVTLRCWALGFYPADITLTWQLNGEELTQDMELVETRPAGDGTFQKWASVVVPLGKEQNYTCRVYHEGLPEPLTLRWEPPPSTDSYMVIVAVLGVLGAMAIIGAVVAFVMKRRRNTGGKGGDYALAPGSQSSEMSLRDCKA
Method: Synthetic peptides were added to 10^6 RMA-S-HHD cells to a concentration of 100 μM followed by incubation for two hours at 26° C. and two hours at 37° C. […] The HLA-A2.1 peptide derived from gp100 served as a positive control and unloaded RMA-S-HHD cells as a negative control.
RMA-S-HHD cells were washed three times with PBS followed by incubation overnight in FCS-free IMDM medium at 26° C. Synthetic peptides were added to 10^6 cells at a concentration of 100 μM. The cells were incubated for two hours at 26° C. followed by two hours at 37° C. […] (Sigma).
Another approach to ascertain that the identified peptides were indeed MHC bound peptide antigens, their capacity to bind tightly and stabilize cell surface HLA-A2.1 was tested by reconstitution into empty MHC on the surface of RMA-S-HHD cells.

| Sequence | lysis of peptide-loaded EL4-HHD cells by CTLs from immunized HHD mice [1] | binding affinity to HLA-A2 / stabilization of empty MHC on the surface of RMA-S-HHD cells (HLA-A2.1) |
| --- | --- | --- |
| FLFDGSPTYVL | significant lysis |  |
| ALSDHHIYL | significant lysis |  |
| TLWVDPYEV | significant lysis |  |
| GVYDGEEHSV |  | normal |
| GLIEKNIEL | significant lysis |  |
